Measurements reported in article PMC6658524, “Lysosomal degradation of newly formed insulin granules contributes to β cell failure in diabetes” (Nature Communications, 2019).

What was measured:
Assay in all cases: biochemical
Set-up in all cases: Eurofins KinaseProfiler panel of 60 kinases, per cent inhibition
Pim-2(h) = target: T1, Pim-2(h) (Homo sapiens, UniProt Q9P1W9)
T1 construct: gene PIM2
Description: (§1) A more detailed account of the discovery, chemistry and biochemical properties of this novel class of selective p38δ inhibitors will be given elsewhere.

c-RAF(h) = target: T2, c-RAF(h) (Homo sapiens, UniProt P04049)
T2 construct: gene RAF1
Description: as §1

MELK(h) = MELK(h) (Homo sapiens, UniProt Q14680)
Description: as §1

PEK(h) = target: T3, PEK(h) (Homo sapiens, UniProt Q9NZJ5)
T3 construct: gene EIF2AK3
Description: as §1

EphA1(h) = EphA1(h) (Homo sapiens, UniProt P21709)
Description: as §1

PKCζ(h) = target: T4, PKCζ(h) (Homo sapiens, UniProt Q05513)
T4 construct: gene PRKCZ
Description: as §1

EGFR(h) = EGFR(h) (Homo sapiens, UniProt P00533)
Description: as §1

GSK3α(h) = target: T5, GSK3α(h) (Homo sapiens, UniProt P49840)
T5 construct: gene GSK3A
Description: as §1

PAK4(h) = PAK4(h) (Homo sapiens, UniProt O96013)
Description: as §1

BrSK2(h) = BrSK2(h) (Homo sapiens, UniProt Q8IWQ3)
Description: as §1

CaMKI(h) = target: T6, CaMKI(h) (Homo sapiens, UniProt Q14012)
T6 construct: gene CAMK1
Description: as §1

CaMKIIδ(h) = target: T7, CaMKIIδ(h) (Homo sapiens, UniProt Q13557)
T7 construct: gene CAMK2D
Description: as §1

Flt3(h) = Flt3(h) (Homo sapiens, UniProt P36888)
Description: as §1

ALK(h) = ALK(h) (Homo sapiens, UniProt Q9UM73)
Description: as §1

Abl(h) = target: T8, Abl(h) (Homo sapiens, UniProt P00519)
T8 construct: gene ABL1
Description: as §1

CDK1/cyclinB(h) = CDK1/cyclinB(h) (Homo sapiens, UniProt P06493)
Description: as §1

IKKε(h) = target: T9, IKKε(h) (Homo sapiens, UniProt Q14164)
T9 construct: gene IKBKE
Description: as §1

SAPK3(h) = target: T10, SAPK3(h) (Homo sapiens, UniProt P53778)
T10 construct: gene MAPK12
Description: as §1

DYRK2(h) = DYRK2(h) (Homo sapiens, UniProt Q92630)
Description: as §1

MST2(h) = target: T11, MST2(h) (Homo sapiens, UniProt Q13188)
T11 construct: gene STK3
Description: as §1

mTOR(h) = mTOR(h) (Homo sapiens, UniProt P42345)
Description: as §1

Lyn(h) = Lyn(h) (Homo sapiens, UniProt P07948)
Description: as §1

PKCβII(h) = target: T12, PKCβII(h) (Homo sapiens, UniProt P05771)
T12 construct: gene PRKCB; isoform beta II
Description: as §1

Ron(h) = target: T13, Ron(h) (Homo sapiens, UniProt Q04912)
T13 construct: gene MST1R
Description: as §1

Chain of ALK(h) (Q9UM73 whole entry): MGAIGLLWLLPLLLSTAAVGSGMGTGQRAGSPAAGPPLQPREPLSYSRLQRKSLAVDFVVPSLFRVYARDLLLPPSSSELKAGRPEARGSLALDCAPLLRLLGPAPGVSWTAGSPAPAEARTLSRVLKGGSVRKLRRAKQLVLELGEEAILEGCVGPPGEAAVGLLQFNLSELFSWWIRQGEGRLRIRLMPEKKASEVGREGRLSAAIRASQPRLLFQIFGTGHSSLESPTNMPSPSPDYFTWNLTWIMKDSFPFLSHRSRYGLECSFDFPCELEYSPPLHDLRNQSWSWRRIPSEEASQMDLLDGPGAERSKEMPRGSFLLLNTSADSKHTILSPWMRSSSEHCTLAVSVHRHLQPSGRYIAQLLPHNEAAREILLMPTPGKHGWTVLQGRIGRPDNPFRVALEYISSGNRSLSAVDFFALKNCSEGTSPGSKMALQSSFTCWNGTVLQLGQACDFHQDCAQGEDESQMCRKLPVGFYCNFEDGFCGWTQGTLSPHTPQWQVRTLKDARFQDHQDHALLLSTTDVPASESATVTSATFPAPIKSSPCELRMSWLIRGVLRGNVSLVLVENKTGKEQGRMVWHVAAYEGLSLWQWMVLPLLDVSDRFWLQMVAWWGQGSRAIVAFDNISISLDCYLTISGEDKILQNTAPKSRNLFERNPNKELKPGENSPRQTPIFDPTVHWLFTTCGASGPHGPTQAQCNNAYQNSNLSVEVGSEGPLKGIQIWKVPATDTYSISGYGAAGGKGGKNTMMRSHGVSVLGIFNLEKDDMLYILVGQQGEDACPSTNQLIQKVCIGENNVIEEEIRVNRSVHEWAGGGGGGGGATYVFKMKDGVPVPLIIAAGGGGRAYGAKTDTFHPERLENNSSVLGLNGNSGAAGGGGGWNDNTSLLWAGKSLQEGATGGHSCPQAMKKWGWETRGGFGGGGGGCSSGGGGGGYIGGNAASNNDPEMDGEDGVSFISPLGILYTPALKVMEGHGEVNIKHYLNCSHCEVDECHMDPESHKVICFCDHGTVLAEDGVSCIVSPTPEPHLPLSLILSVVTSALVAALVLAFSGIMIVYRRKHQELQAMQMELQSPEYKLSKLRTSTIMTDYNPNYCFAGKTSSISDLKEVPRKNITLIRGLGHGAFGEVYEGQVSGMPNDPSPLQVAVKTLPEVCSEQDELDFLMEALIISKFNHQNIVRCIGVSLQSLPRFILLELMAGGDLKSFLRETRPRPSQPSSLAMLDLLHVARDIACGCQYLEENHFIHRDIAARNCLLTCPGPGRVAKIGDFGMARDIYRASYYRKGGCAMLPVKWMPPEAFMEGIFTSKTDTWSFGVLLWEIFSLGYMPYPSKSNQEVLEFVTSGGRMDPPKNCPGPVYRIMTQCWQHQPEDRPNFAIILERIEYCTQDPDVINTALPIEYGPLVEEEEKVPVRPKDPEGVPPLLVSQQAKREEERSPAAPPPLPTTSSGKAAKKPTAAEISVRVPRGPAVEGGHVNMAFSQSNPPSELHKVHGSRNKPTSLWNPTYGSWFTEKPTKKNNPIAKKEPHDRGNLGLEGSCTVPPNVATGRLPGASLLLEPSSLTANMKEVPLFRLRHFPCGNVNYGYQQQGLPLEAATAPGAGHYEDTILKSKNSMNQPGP
Chain of EGFR(h) (P00533 whole entry): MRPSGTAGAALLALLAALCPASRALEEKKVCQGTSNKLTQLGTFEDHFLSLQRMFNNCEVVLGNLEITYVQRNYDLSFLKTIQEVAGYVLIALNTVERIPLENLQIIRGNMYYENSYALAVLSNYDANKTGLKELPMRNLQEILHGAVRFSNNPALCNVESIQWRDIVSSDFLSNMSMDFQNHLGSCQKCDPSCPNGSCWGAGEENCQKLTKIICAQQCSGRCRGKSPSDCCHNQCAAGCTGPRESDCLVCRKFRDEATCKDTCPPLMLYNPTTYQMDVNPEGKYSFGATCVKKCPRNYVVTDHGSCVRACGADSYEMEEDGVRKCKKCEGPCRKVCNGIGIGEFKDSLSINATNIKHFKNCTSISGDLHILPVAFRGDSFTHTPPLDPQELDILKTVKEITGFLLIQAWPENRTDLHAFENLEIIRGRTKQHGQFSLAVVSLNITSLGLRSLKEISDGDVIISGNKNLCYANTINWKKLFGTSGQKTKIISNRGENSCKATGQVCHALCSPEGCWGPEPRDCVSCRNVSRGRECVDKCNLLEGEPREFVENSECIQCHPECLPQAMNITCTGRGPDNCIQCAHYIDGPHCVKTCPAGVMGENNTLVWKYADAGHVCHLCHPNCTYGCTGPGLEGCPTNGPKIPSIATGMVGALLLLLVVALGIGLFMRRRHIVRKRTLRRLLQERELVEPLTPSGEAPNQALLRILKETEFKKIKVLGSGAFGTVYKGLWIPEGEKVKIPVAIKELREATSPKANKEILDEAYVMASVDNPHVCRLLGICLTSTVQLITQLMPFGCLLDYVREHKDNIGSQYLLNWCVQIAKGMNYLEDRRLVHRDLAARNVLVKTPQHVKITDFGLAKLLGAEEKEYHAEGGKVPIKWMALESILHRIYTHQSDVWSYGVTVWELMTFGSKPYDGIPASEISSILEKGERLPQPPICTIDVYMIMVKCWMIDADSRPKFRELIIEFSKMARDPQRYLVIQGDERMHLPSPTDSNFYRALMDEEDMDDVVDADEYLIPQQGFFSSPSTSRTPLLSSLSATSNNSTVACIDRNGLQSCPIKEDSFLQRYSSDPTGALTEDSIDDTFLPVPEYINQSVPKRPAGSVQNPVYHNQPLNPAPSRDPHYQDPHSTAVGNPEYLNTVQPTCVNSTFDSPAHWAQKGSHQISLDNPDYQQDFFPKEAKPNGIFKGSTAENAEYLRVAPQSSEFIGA
T8 sequence (P00519 whole entry): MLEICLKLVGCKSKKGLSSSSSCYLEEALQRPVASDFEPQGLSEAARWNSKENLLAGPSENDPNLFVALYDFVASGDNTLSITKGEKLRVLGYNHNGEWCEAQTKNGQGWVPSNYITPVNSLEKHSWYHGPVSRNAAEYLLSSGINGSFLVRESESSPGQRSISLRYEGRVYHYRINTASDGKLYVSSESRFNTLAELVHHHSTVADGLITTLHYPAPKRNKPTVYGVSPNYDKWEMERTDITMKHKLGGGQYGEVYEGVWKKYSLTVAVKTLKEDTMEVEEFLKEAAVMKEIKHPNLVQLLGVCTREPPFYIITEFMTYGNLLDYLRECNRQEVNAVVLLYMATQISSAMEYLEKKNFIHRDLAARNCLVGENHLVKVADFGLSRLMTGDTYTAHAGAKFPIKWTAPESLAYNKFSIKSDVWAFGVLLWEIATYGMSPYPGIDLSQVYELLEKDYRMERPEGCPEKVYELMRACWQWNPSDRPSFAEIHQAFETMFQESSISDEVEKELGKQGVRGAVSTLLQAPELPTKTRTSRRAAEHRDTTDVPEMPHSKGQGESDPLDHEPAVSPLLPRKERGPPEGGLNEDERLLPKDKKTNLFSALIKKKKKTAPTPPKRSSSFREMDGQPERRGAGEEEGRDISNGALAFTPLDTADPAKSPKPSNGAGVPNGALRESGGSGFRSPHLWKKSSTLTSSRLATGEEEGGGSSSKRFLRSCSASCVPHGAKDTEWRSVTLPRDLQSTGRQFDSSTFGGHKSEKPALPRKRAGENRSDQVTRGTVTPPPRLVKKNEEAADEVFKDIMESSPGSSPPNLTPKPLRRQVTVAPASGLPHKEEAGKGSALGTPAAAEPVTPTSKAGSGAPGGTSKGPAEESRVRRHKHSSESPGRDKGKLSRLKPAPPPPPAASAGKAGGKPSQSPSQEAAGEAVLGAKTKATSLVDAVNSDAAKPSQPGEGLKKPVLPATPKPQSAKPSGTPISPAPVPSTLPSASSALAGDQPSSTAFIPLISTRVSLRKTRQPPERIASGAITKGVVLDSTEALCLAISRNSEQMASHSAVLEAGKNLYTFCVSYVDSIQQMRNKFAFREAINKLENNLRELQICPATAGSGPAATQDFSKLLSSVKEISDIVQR
Chain of DYRK2(h) (Q92630 whole entry): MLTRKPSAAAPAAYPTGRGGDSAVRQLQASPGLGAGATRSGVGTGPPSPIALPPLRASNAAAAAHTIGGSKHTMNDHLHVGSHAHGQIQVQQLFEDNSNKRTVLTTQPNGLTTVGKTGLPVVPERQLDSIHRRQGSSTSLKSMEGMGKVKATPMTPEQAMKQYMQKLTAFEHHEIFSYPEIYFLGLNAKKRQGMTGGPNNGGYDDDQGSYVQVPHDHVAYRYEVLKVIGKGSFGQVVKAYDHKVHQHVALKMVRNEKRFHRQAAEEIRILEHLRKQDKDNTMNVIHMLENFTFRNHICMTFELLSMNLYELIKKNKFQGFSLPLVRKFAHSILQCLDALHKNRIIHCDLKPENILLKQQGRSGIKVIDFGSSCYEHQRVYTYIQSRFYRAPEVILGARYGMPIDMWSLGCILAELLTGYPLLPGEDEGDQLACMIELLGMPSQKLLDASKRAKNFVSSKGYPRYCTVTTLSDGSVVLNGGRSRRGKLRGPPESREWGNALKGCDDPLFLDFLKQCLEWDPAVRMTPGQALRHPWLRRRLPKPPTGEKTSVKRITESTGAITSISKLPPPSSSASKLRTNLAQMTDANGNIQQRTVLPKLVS
T1 sequence (Q9P1W9 whole entry): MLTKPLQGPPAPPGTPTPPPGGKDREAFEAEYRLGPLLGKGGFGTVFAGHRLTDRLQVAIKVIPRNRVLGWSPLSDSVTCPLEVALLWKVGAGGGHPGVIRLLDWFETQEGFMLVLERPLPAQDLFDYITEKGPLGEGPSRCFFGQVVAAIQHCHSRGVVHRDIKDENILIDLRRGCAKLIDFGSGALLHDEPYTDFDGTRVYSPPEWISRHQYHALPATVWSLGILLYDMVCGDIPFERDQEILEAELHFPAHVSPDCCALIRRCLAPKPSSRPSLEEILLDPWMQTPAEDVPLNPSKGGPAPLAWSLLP

`CCN1CCOc2nc(N3CCOCC3)nc(-c3ccc(NC(=O)OC)cc3)c2C1=O` [Compound A] gave an inhibition at 1 µM (Pim-2(h)) of 8%, an inhibition at 10 µM (Pim-2(h)) of 7% and an inhibition at 1 µM (c-RAF(h)) of -5%. It also gave an inhibition at 10 µM (c-RAF(h)) of 2%, an inhibition at 1 µM (MELK(h)) of 2% and an inhibition at 10 µM (MELK(h)) of 9%. The inhibition at 1 µM (PEK(h)) was -12%, the inhibition at 10 µM (PEK(h)) was -11% and the inhibition at 1 µM (EphA1(h)) was 0%. The inhibition at 10 µM (EphA1(h)) was 7%, the inhibition at 1 µM (PKCζ(h)) was 0% and the inhibition at 10 µM (PKCζ(h)) was 10%. It also gave an inhibition at 1 µM (EGFR(h)) of -17%, an inhibition at 10 µM (EGFR(h)) of 4% and an inhibition at 1 µM (GSK3α(h)) of -9%. For the same compound, the inhibition at 10 µM (GSK3α(h)) was -7%, the inhibition at 1 µM (PAK4(h)) was -2% and the inhibition at 10 µM (PAK4(h)) was 4%. It also gave an inhibition at 1 µM (BrSK2(h)) of 5%, an inhibition at 10 µM (BrSK2(h)) of 5% and an inhibition at 1 µM (CaMKI(h)) of 5%. For the same compound, the inhibition at 10 µM (CaMKI(h)) was 11%, the inhibition at 1 µM (CaMKIIδ(h)) was -6% and the inhibition at 10 µM (CaMKIIδ(h)) was 1%. The inhibition at 1 µM (Flt3(h)) was -30%, the inhibition at 10 µM (Flt3(h)) was -25% and the inhibition at 1 µM (ALK(h)) was 4%. It also gave an inhibition at 10 µM (ALK(h)) of 0%, an inhibition at 1 µM (Abl(h)) of 6% and an inhibition at 10 µM (Abl(h)) of 8%. The inhibition at 1 µM (CDK1/cyclinB(h)) was -5%, the inhibition at 10 µM (CDK1/cyclinB(h)) was 4% and the inhibition at 1 µM (IKKε(h)) was 16%. The inhibition at 10 µM (IKKε(h)) was 18%, the inhibition at 1 µM (SAPK3(h)) was 11% and the inhibition at 1 µM (DYRK2(h)) was -10%. The inhibition at 10 µM (DYRK2(h)) was -10%, the inhibition at 1 µM (MST2(h)) was -16% and the inhibition at 10 µM (MST2(h)) was -2%. It also gave an inhibition at 1 µM (mTOR(h)) of -1%, an inhibition at 1 µM (Lyn(h)) of -2% and an inhibition at 10 µM (Lyn(h)) of 13%. It also gave an inhibition at 1 µM (PKCβII(h)) of 0%, an inhibition at 10 µM (PKCβII(h)) of 1% and an inhibition at 1 µM (Ron(h)) of 10%. The inhibition at 10 µM (Ron(h)) was 9%.
